This data set has as its system CCRIS mutagenicity, Ames/micronucleus/aberration tests. Nature of the data set: CCRIS mutagenicity studies.
Setting [1] is: Test System: AMES SALMONELLA TYPHIMURIUM, Strain/Indicator: TA98, Metabolic Activation: NONE, Method: PREINCUBATION
Setting [2] is: Test System: AMES SALMONELLA TYPHIMURIUM, Strain/Indicator: TA100, Metabolic Activation: NONE, Method: PREINCUBATION
The mark [3] stands for this setting: Test System: UDS RODENT HEPATOCYTES, Strain/Indicator: THY INCORP (NON-S-PHASE), Metabolic Activation: NONE, Method: AUTORADIOGRAPHY

The source made the active and inactive calls. No rule for the calls is given here.

For `CCOc1ccc(N)cc1`, the mutagenic call was “inactive; negative” (Test System: AMES SALMONELLA TYPHIMURIUM, Strain/Indicator: TA98, Metabolic Activation: HAMSTER, LIVER, S-9, AROCLOR 1254 (30%), Method: PREINCUBATION); “inactive; negative” under setting [1]; “inactive; negative” (Test System: AMES SALMONELLA TYPHIMURIUM, Strain/Indicator: TA98, Metabolic Activation: RAT, LIVER, S-9, AROCLOR 1254 (30%), Method: PREINCUBATION); “active; positive” (Test System: AMES SALMONELLA TYPHIMURIUM, Strain/Indicator: TA100, Metabolic Activation: HAMSTER, LIVER, S-9, AROCLOR 1254 (30%), Method: PREINCUBATION); “active; positive” (Test System: AMES SALMONELLA TYPHIMURIUM, Strain/Indicator: TA100, Metabolic Activation: HAMSTER, LIVER, S-9, KANECHLOR 400, Method: PREINCUBATION); “inactive; negative” under setting [2]. Also, the mutagenic call is “active; positive” (Test System: AMES SALMONELLA TYPHIMURIUM, Strain/Indicator: TA100, Metabolic Activation: RAT, LIVER, S-9, AROCLOR 1254 (30%), Method: PREINCUBATION) and “inactive; negative” under setting [3].

Consider `O=C1c2ccccc2C(=O)c2c1ccc(O)c2O`, for which the mutagenic call is “inactive; negative” under setting [1]; “inactive; negative” (Test System: AMES SALMONELLA TYPHIMURIUM, Strain/Indicator: TA98, Metabolic Activation: RAT, LIVER, S-9, PCB, Method: PREINCUBATION); “inactive; negative” under setting [2]; “inactive; negative” (Test System: AMES SALMONELLA TYPHIMURIUM, Strain/Indicator: TA100, Metabolic Activation: NONE, Method: STANDARD PLATE); “inactive; negative” (Test System: AMES SALMONELLA TYPHIMURIUM, Strain/Indicator: TA100, Metabolic Activation: RAT, LIVER, S-9, AROCLOR 1254, Method: STANDARD PLATE); “inactive; negative” (Test System: AMES SALMONELLA TYPHIMURIUM, Strain/Indicator: TA100, Metabolic Activation: RAT, LIVER, S-9, PCB, Method: PREINCUBATION). For the same molecule, the mutagenic call was “inactive; negative” (Test System: AMES SALMONELLA TYPHIMURIUM, Strain/Indicator: TA1535, Metabolic Activation: NONE, Method: STANDARD PLATE); “inactive; negative” (Test System: AMES SALMONELLA TYPHIMURIUM, Strain/Indicator: TA1535, Metabolic Activation: RAT, LIVER, S-9, AROCLOR 1254, Method: STANDARD PLATE); “active; positive” (Test System: AMES SALMONELLA TYPHIMURIUM, Strain/Indicator: TA1537, Metabolic Activation: NONE, Method: STANDARD PLATE); “active; positive” (Test System: AMES SALMONELLA TYPHIMURIUM, Strain/Indicator: TA1537, Metabolic Activation: RAT, LIVER, S-9, AROCLOR 1254, Method: STANDARD PLATE); “active; positive” (Test System: AMES SALMONELLA TYPHIMURIUM, Strain/Indicator: TA1537, Metabolic Activation: RAT, LIVER, S-9, Method: PREINCUBATION); “inactive; negative” (Test System: AMES SALMONELLA TYPHIMURIUM, Strain/Indicator: TA1538, Metabolic Activation: NONE, Method: STANDARD PLATE). Besides, the mutagenic call reads like this: (Test System: AMES SALMONELLA TYPHIMURIUM, Strain/Indicator: TA1538, Metabolic Activation: RAT, LIVER, S-9, AROCLOR 1254, Method: STANDARD PLATE) “inactive; negative”; under setting [3], “active; positive”.

These data come from PubChem BioAssay AID1259407 (Chemical Carcinogenesis Research Information System (CCRIS), 2018).
